Numbers after ± are expanded uncertainties.
Test: wn = mass fraction of the nth substance listed
Settings: 100 kPa, Liquid; for viscosity: Falling or rolling sphere viscometry; for mass density: Vibrating tube method

CNCCO [2-(methylamino)ethanol] + O
Settings	mass density, w1 = 0.075 [kg/m3]	mass density, w1 = 0.15 [kg/m3]	mass density, w1 = 0.225 [kg/m3]	mass density, w1 = 0.3 [kg/m3]	viscosity, w1 = 0.075 [mPa·s]	viscosity, w1 = 0.15 [mPa·s]	viscosity, w1 = 0.225 [mPa·s]	viscosity, w1 = 0.3 [mPa·s]
293.15 K	997.66 ± 5.8	997.93 ± 5.8	999 ± 5.8	1001.69 ± 5.8	1.39 ± 0.012	1.875 ± 0.017	2.702 ± 0.024	3.973 ± 0.036
298.15 K	996.35 ± 5.8	996.35 ± 5.8	997.03 ± 5.8	999.21 ± 5.8	1.217 ± 0.011	1.639 ± 0.015	2.367 ± 0.021	3.335 ± 0.03
303.15 K	994.81 ± 5.8	994.57 ± 5.8	994.9 ± 5.8	996.58 ± 5.8	1.075 ± 0.01	1.426 ± 0.013	2.02 ± 0.018	2.886 ± 0.026
308.15 K	993.06 ± 5.8	992.6 ± 5.8	992.58 ± 5.8	993.8 ± 5.8	0.958 ± 0.009	1.263 ± 0.011	1.744 ± 0.016	2.461 ± 0.022
313.15 K	991.11 ± 5.8	990.45 ± 5.8	990.11 ± 5.8	990.81 ± 5.8	0.859 ± 0.008	1.151 ± 0.01	1.521 ± 0.014	2.157 ± 0.019
318.15 K	988.99 ± 5.8	988.13 ± 5.8	987.49 ± 5.8	987.7 ± 5.8	0.777 ± 0.007	1.022 ± 0.009	1.409 ± 0.013	1.902 ± 0.017
323.15 K	986.7 ± 5.8	985.66 ± 5.8	984.71 ± 5.8	984.5 ± 5.8	0.707 ± 0.006	0.993 ± 0.009	1.299 ± 0.012	1.727 ± 0.016
